Measured values taken from the supplement of paper PMC10307832.

Experiments:
Assay in all cases: relative viability (nuclei count vs DMSO), 5 days (fraction); higher = more cells survive
[1] = compound: C#Cc1cccc(Nc2ncnc3cc(OC)c(OCCCCCCC(=O)NO)cc23)c1 [CUDC-101] + Cc1cc(Nc2cc(N3CCN(C)CC3)nc(Sc3ccc(NC(=O)C4CC4)cc3)n2)n[nH]1 [Tozasertib] (partner 0.1 µM)
How it was run: (§1)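 Lung cancer cell lines, seeded in 1536-well plates, were treated the following day by pin tool with a single drug or with five library-drug doses (not always all listed) in √10 steps on top of a fixed anchor-drug dose. Cells were fixed and nuclei stained in one step after 5 days, and nuclei were counted. Relative viability is the nuclei count for treated wells divided by that for vehicle wells, reported as medians of duplicate plates.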

[2] = compound: C1=CC=C2C(=C1)N=C(S2)C(C#N)C3=NC(=NC=C3)NCCC4=CN=CC=C4 + CC(=O)c1c(C)c2cnc(Nc3ccc(N4CCNCC4)cn3)nc2n(C2CCCC2)c1=O [Palbociclib] (partner 0.5 µM)
How it was run: as §1

[3] = compound: C1=CC=C2C(=C1)N=C(S2)C(C#N)C3=NC(=NC=C3)NCCC4=CN=CC=C4 + CS(=O)(=O)N1CCN(Cc2cc3nc(-c4cccc5[nH]ncc45)nc(N4CCOCC4)c3s2)CC1 [Pictilisib] (partner 1 µM)
How it was run: as §1

[4] = compound: COc1cc2/c(=N/c3ccc(Br)cc3F)nc[nH]c2cc1OCC1CCN(C)CC1 [Vandetanib] + CCNC(=O)c1noc(-c2cc(C(C)C)c(O)cc2O)c1-c1ccc(CN2CCOCC2)cc1 [Luminespib] (partner 0.01 µM)
How it was run: as §1

Cell Line	relative viability ([1]; first compound 0.01 µM)	relative viability ([1]; first compound 0.03162 µM)	relative viability ([1]; first compound 0.1 µM)	relative viability ([1]; first compound 0.3162 µM)	relative viability ([1]; first compound 1 µM)	relative viability ([2]; first compound 0.005 µM)	relative viability ([2]; first compound 0.01581 µM)	relative viability ([2]; first compound 0.05 µM)	relative viability ([2]; first compound 0.1581 µM)	relative viability ([2]; first compound 0.5 µM)	relative viability ([3]; first compound 0.005 µM)	relative viability ([3]; first compound 0.01581 µM)	relative viability ([3]; first compound 0.05 µM)	relative viability ([3]; first compound 0.1581 µM)	relative viability ([3]; first compound 0.5 µM)	relative viability ([4]; first compound 0.02 µM)	relative viability ([4]; first compound 0.06325 µM)	relative viability ([4]; first compound 0.2 µM)	relative viability ([4]; first compound 0.6325 µM)	relative viability ([4]; first compound 2 µM)
201T	0.927	0.899	0.876	0.69	0.536	0.292	0.354	0.354	0.383	0.325	0.7	0.69	0.621	0.662	0.698	1.03	1.05	1.01	0.99	0.974
A549											0.379	0.487	0.414	0.62	0.496					
A-427	0.211	0.227	0.219	0.205	0.165	0.542	0.5	0.519	0.525	0.56	0.723	0.664	0.726	0.844	0.878	0.892	0.822	0.927	1.08	0.926
ABC-1	0.139	0.186	0.189	0.166	0.128	0.525		0.597	0.554	0.451	0.84	0.605	0.758	0.87	0.725	0.673	0.616	0.401	1.2	0.594
BEN	0.54	0.505	0.452	0.47	0.427	0.417	0.472	0.473	0.473	0.444	0.59	0.509	0.584	0.576	0.561	0.448	0.333	0.469	0.297	0.351
CAL-12T	0.409	0.278	0.318	0.344	0.362	0.422	0.327	0.429	0.673	0.41	0.607			0.551	0.375	0.367	0.461	0.183	0.307	0.232
COR-L23	0.245	0.202	0.208	0.218	0.159	0.236	0.312	0.229	0.281	0.24	0.531	0.792	0.725	0.952	0.762	0.629	0.653	0.747	0.7	0.685
Calu-6											0.74	0.885	0.938	0.932	0.806					
EBC-1											0.398	0.363	0.352	0.368	0.275					
HCC-78	0.401	0.405	0.36	0.316	0.184	0.333	0.431	0.506	0.485	0.478	0.26	0.167	0.174	0.25	0.14					
HCC-366	0.127	0.111	0.0975	0.111	0.0886	0.302	0.44	0.364	0.375	0.282	0.138	0.196	0.181	0.159	0.117					
IA-LM											0.25	0.368	0.285	0.387	0.377					
NCI-H522	0.602	0.53	0.539	0.528	0.366	0.95	0.958	0.96	0.917	1.09						1.3	1.17	1.11	1.18	0.96
NCI-H596	0.632	0.716	0.871	0.917	0.819						0.378	0.349	0.383	0.46	0.392	0.915	0.89	0.81	1.02	0.771
NCI-H1299											0.682	0.941	0.807	0.875	0.834					
NCI-H1563											0.642	0.619	0.677	0.709	0.647	0.552	0.53	0.515	0.518	0.473
NCI-H1623	0.406	0.379	0.389	0.356	0.272											0.504	0.577	0.581	0.521	0.436
NCI-H1648	0.64		0.636	0.362	0.221		0.294		0.331	0.281										
NCI-H1703											0.242	0.223	0.218	0.261	0.252					
NCI-H1792						0.473	0.732	0.622	0.995	0.474		0.312	0.285	0.246	0.225	0.492	0.496	0.355	0.461	0.413
NCI-H2342	0.592	0.55	0.474	0.437	0.453	0.481	0.513	0.52	0.501	0.557						0.757	0.71	0.716	0.754	0.651
SW 900	0.471	0.633	0.566	0.526	0.519	0.441	0.496	0.412	0.586	0.458						0.19	0.17	0.195	0.204	0.175
